According to a melting point compilation (Tetko et al.; mined from patent text by program, amines drawn as free bases though some values may be those of a salt):

Work on `CCCCN1CCCC1=NC(=O)Nc1cccc(Cl)c1` yielded a melting point of 94 to 96 °C.
With `COC(C)(CC(=O)Nc1cccc(OC(=O)NC2CCCCC2)c1)OC` the melting point was 163 °C.
`N=C(Nc1ccccc1)Nc1ncccc1OCc1c(F)cccc1F` showed a melting point of 136 to 137 °C.
`Cn1nc(-c2c(F)cccc2F)nc1-c1ccc(OCc2ccc(OC(F)(F)F)cc2)c(Cl)c1` showed a melting point of 132 to 136 °C.
Work on `COC(=O)c1ccc(C2OC23Cc2ccccc2C3=O)cc1` (stereo not drawn) yielded a melting point of 160 to 163 °C.
`Clc1ccccc1COc1c(Cl)cc(OCC=C(Br)Br)cc1Cl` showed a melting point of 83.5 °C.
Work on `C[Si](C)(C)OC1(C#N)CCC(C(=O)NCc2cccc3ccccc23)c2ccccc21` (stereo not drawn) yielded a melting point of 55 to 56 °C.
For `CCn1c(=O)c(C(=O)NN)c(O)c2ccc(C)nc21`, the melting point was 211 to 213 °C.
`O=c1[nH]c2ccccc2c2c(CCN3CCN(Cc4ccccc4)CC3)n(-c3ccccc3)nc12` showed a melting point of 211 to 212 °C.
For `CN1C(=S)N(c2ccc(Cl)c(Cl)c2)C(=N)C1(C)C`, the melting point was 133 °C.
For `Cn1nc2c(N)nc3ncccc3c2c1CC(C)(C)C`, the melting point was 323 to 326 °C.
Work on `CC(C)(C)NC(=O)c1ncccc1CCc1cccc(Cl)c1` yielded a melting point of 45 to 46 °C.
`CCN1CCN(Cc2cc(-c3ccc4c(Nc5cc(OC)c(Cl)cc5Cl)c(C#N)cnc4c3)cs2)CC1` showed a melting point of 118 to 120 °C.
With `N#Cc1cccc(CN2C(=O)C3(COc4cc5c(cc43)CCO5)c3ccccc32)c1` (stereo not drawn) the melting point was 187 to 193 °C.
Molecule `CC(C)C[C@H](CC(N)=O)CC(=O)O` has a melting point of 132 to 135 °C.
`CCOC(=O)/C=C/c1ccc(N2CCC(=O)CC2)cc1` gave a melting point of 96 to 98 °C.
Work on `CCNC(=NC#N)NC` yielded a melting point of 120 to 124 °C.
In the case of `CN1CC(C(=O)N(Cc2ccc(F)cc2)OCC(=O)O)=C(O)C1=O`, the melting point is reported as 147 to 150 °C.
`CCCCc1ccc(CCc2ccc(-c3ccc(F)cc3F)cc2)cc1` gave a melting point of 40 °C.
In the case of `COc1c(Cl)cc2c(N)nc(N3CCN(C(=O)C4CCCO4)CC3)nc2c1OC` (stereo not drawn), the melting point is reported as 192 to 193 °C.
With `CN1C(=O)CCC2(C)C1=CCC1C2CCC2(C)C(O)CCC12` (stereo not drawn) the melting point was 181 to 183 °C.
`CS(=O)(=O)c1ccc(-c2[nH]nc(C(CCCO[N+](=O)[O-])=NO)c2-c2ccc(C#N)cc2)cc1` showed a melting point of 146 to 147 °C.
`COC[C@H]1CCCN1NC(=O)c1ccc(-c2[nH]nc3c2C(=O)c2c(NC(=O)NN4CCOCC4)cccc2-3)s1` gave a melting point of 266 to 267 °C.
`O=C(O)[C@H]1CCCN1C(=O)CCCc1ccccc1` gave a melting point of 86 to 87.5 °C.
In the case of `CC(N1CCN(c2ncn(Cc3ccc(C(C)(C)C)cc3)n2)CC1)C(O)(Cn1cncn1)c1ccc(F)cc1F` (stereo not drawn), the melting point is reported as 84 to 86 °C.
With `CS(=O)(=O)Cc1cc(Br)ccc1C(=O)c1cnoc1C1CC1` the melting point was 154 °C.
Work on `CCCCCS(=O)(=O)NC(=O)/C=C/c1ccc(OCCOCCOC)cc1Oc1ncc(C(F)(F)F)cc1Cl` yielded a melting point of 81 to 83 °C.
Work on `CCCCCCCC(=O)NCCCCCCO` yielded a melting point of 77 to 78 °C.
Work on `O=C(c1ccc(Cl)cc1)N1CCc2cc(S(=O)(=O)n3cc(-c4ccccc4)[nH]c3=O)ccc21` yielded a melting point of 220 to 221 °C.
In the case of `COc1cccc(COc2ncc(F)c(NS(N)(=O)=O)n2)c1`, the melting point is reported as 126 to 130 °C.
Work on `Cc1ccc(N(c2ccc(-c3ccc(N(c4ccccc4)c4cccc(C)c4)cc3)cc2)c2ccc3ccc4cccc5ccc2c3c45)cc1` yielded a melting point of 172 to 173 °C.
`CCCc1cccc(N(CC(=O)OC)NC(=O)NC)c1` gave a melting point of 76 to 77 °C.
`C=CCNC(=O)N1CCC1c1ccccc1F` (stereo not drawn) gave a melting point of 119 to 120 °C.
Work on `CCN(CC)CCCCNc1ncc2c(n1)N(CC)C(=O)N(c1cc(OC)cc(OC)c1)C2` yielded a melting point of 83 to 85 °C.
`Cc1nnc2n1-c1ccc(Br)cc1C(c1ccccn1)=NC2` gave a melting point of 248 to 250 °C.
Work on `COC(=O)N(C)n1c(C)nc(N2CCc3ccccc3CC2)c(C#N)c1=O` yielded a melting point of 120 to 122 °C.
Molecule `CC1(C)CS(=O)(=O)CC(C)(C)N1CC#N` has a melting point of 188 °C.
With `C[C@]1(COc2ccc(N3CCC(COc4ccc(CCl)cc4)CC3)cc2)Cn2cc([N+](=O)[O-])nc2O1` the melting point was 140 to 142 °C.
Work on `CN1CCCC1=NC(=O)Nc1ccccc1` yielded a melting point of 140 to 144 °C.
`CNC(=O)Oc1ccc2ccccc2c1` showed a melting point of 119 °C.
`Nc1c(F)c(N2CCC(=NO)C2)c(F)c2c1c(=O)c(C(=O)O)cn2C1CC1` gave a melting point of 273 to 276 °C.
In the case of `Nc1nc2ccccc2c2c1nc(C1CCCC1)n2CCOc1ccccc1`, the melting point is reported as 216 to 218 °C.
In the case of `O=C(Oc1ccc2c(c1)C13CCCCC1N(C2)N(C(=O)C1CC1)CC3)C1CC1` (single isomer, unassigned; (+)), the melting point is reported as 144 °C.
In the case of `Fc1cccc(OC2CN([C@H]3CC[C@@H](c4c[nH]c5ccc(F)cc54)CC3)C2)c1`, the melting point is reported as 119 to 125 °C.
In the case of `COC(=O)C(Br)(C1=NCCCS1)[N+](=O)[O-]` (stereo not drawn), the melting point is reported as 88.5 to 93 °C.
`CCCCCCCCCCOc1cc(OCCCCCCCCCC)cc(N(CC(=O)OC)CC(=O)OC)c1` showed a melting point of 36 to 38 °C.
`Cc1nc(C(F)(F)F)ccc1NC(=NC#N)NC(NC(=O)c1ccc(Cl)cc1)C(C)(Cl)Cl` (stereo not drawn) showed a melting point of 115 to 116 °C.
With `CNC(=O)Oc1ccc(N=Cc2ccccc2O)c2c1OC(C)(C)C2` the melting point was 201 to 203 °C.
Molecule `Nc1cccc(-c2cncc(OC[C@@H]3CCN3)c2)c1` has a melting point of 85 to 87 °C.
In the case of `CC(=O)Nc1cc(O)cc(C(C)CCCc2ccccc2)c1` (stereo not drawn), the melting point is reported as 128 to 130 °C.
In the case of `C#Cc1ccc2ccc(OC(OC)C(=O)NC(C)(C)COC)cc2c1` (stereo not drawn), the melting point is reported as 91 to 92 °C.
In the case of `CC1CC(C(=O)Nc2ccccc2)(C(=O)OC(C)(C)C)N(C(=O)CNC(=O)Nc2cccc(C(=O)O)c2)C1c1ccccc1` (stereo not drawn), the melting point is reported as 238 °C.
`CCC1=Nc2ccc(OCCN3C(=O)c4ccccc4C3=O)cc2C(=O)C1` gave a melting point of 168 to 171 °C.
`Cc1c(C)c2c(c(C)c1OCCCc1ccccc1)C(c1ccc(C(C)C)cc1)C(C)(C)O2` (stereo not drawn) gave a melting point of 78 to 80 °C.
In the case of `Oc1c(CCCBr)ccc2ccccc12`, the melting point is reported as 53 to 55 °C.
Work on `CCOC(=O)COc1cc(C(=O)OC)on1` yielded a melting point of 66 to 67 °C.
`CCCc1c(C(C)=O)ccc(OCc2nc3nccnc3c(=O)[nH]2)c1O` gave a melting point of 224 to 226 °C.
With `CCOC(=O)CCCOc1cc(C=Cc2ccc3ccc(Br)cc3n2)ccc1Cl` the melting point was 215 to 220 °C.
In the case of `Cc1[nH]c(-c2ccccc2)c(N)c1C(=O)C(C)C`, the melting point is reported as 180 to 183 °C.
Work on `COc1cc2c(cc1OCc1ccccc1)C(C#N)C2` (stereo not drawn) yielded a melting point of 85 °C.
With `COc1ccc(Nc2ccccc2C(=O)CS(C)=O)cc1` (stereo not drawn) the melting point was 115 to 116 °C.
In the case of `COCC1(O)CCN(c2ccc(N3C[C@H](CNC(C)=O)OC3=O)cc2)CC1`, the melting point is reported as 152 to 154 °C.
With `OC(CCc1c[nH]cn1)(c1ccccc1)c1ccccc1` the melting point was 189 to 191 °C.
With `Nc1ccccc1-c1csc2nc(C34CC5CC(CC(C5)C3)C4)cn12` the melting point was 160 to 162 °C.
With `CCN1CCN(c2ccc(-c3ccc4c(Nc5ccc(Sc6nccn6C)c(Cl)c5)c(C#N)cnc4c3)nc2)CC1` the melting point was 246 to 248 °C.
In the case of `Cc1ccc(S(=O)(=O)NC(=O)C2C(=O)CC(C(C)(C)C)CC2=O)cc1` (stereo not drawn), the melting point is reported as 162 to 163 °C.
In the case of `COc1c(C)c2c(c(OS(=O)(=O)c3ccc(C)cc3)c1CC1=C(C)C(=O)CC1)C(=O)OC2`, the melting point is reported as 65.4 to 66.8 °C.
For `Nc1ccc(Sc2ncccn2)cc1`, the melting point was 124 to 126 °C.
`O=C(Cl)N1CCC(N2CCCCC2)CC1` gave a melting point of 63.8 °C.
Work on `CC(=O)OCC1CC(Nc2cc(Cl)c(Cl)cc2N)C(OC(C)=O)C1OC(C)=O` (stereo not drawn) yielded a melting point of 124 to 125 °C.
`OCc1ccc(-c2ccccc2)cc1Cl` showed a melting point of 69 to 70 °C.
`O=C1CN(Cc2ccccc2)c2cc(Br)ccc2N1` gave a melting point of 174 to 176 °C.
Molecule `COc1cc(C(=O)NS(=O)(=O)c2ccccc2Cl)ccc1Cc1c(Cl)n(C)c2ccc(CCNC(=O)N(C)C)cc12` has a melting point of 204 to 206 °C.
In the case of `NS(=O)(=O)c1cc(C(=O)O)cc(NCc2ccccc2)c1Nc1ccccc1`, the melting point is reported as 248 to 249 °C.
`OCc1ccc(Cn2c(CC3CCN(CCNc4ccc(Cl)nn4)CC3)nc3ccccc32)o1` gave a melting point of 188 °C.
Molecule `O=C(O)Cc1csc(NC(=O)C(CC2CCCC2)c2ccc(Cl)c(Cl)c2)n1` (stereo not drawn) has a melting point of 100 to 102 °C.
Molecule `CC(=O)N1CCc2ccc(C(=O)c3cccc(F)c3)cc2C1` has a melting point of 136 to 139 °C.
With `C=C(C)COC(=O)N1CCN(c2c(C(=O)N3CCN(C)CC3)c3ccccc3n2-c2ccccc2)CC1` the melting point was 141 to 143 °C.
`CSc1nc(NS(=O)(=O)c2ccc(C(C)(C)C)cc2)c(-c2ccc(C)cc2)c(OCCOCc2ccccc2)n1` gave a melting point of 115 to 116 °C.
Molecule `Clc1ccccc1Cc1cccc2[nH]ccc12` has a melting point of 76 to 77 °C.
In the case of `c1ccc(CCN2CCN(Cc3nc4ccccc4[nH]3)CC2)cc1`, the melting point is reported as 150 to 152 °C.
Molecule `Cc1ccc(S(=O)O)cc1` has a melting point of 55 to 57 °C.
With `COc1cc2ncnc(N3CCN(C(=S)NCc4ccc(OC(F)(F)F)cc4)CC3)c2cc1OC` the melting point was 131 to 132 °C.
Molecule `Cc1cc(COc2ccccc2)c2c(N)c(C(N)=O)sc2n1` has a melting point of 194 to 196 °C.
In the case of `CCOc1ccc(-c2ccc3c(c2)C=C(C(=O)OC)CCN3)cc1`, the melting point is reported as 157 to 158 °C.
`CCCCCCCCCCOC1CCC(=O)N1` (stereo not drawn) showed a melting point of 44 to 46 °C.
`CCN(Cc1ccccc1)C(=O)Cc1c(-c2ccc(Cl)cc2)nc2cc(C)ccn12` gave a melting point of 192 to 193 °C.
In the case of `COCC(Cl)C(=O)Nc1c(C(=O)CC(=O)Nc2nccs2)cccc1C(F)(F)F` (stereo not drawn), the melting point is reported as 190 °C.
In the case of `CCCCc1nc2c(N)nc(C)c(C)c2n1CCCCNC(=O)c1ccccc1`, the melting point is reported as 128 to 129 °C.
`COc1cc2c(N)nc(N3CCN(c4nc5cccccc-5n4)CC3)nc2c(OC)c1OC` gave a melting point of 284 to 285 °C.
In the case of `Cc1nc(N2CCN(Cc3ccccc3)C2=O)sc1C(=O)NCc1ccccn1`, the melting point is reported as 149 to 151 °C.
For `CC(=O)c1nn(-c2c(Cl)cc(C(F)(F)F)cc2Cl)c(N)c1S(=O)(=O)c1ccc(Cl)cc1`, the melting point was 158 °C.
Molecule `CS(=O)(=O)c1ccc(C(CC2CCCC2)C(=O)Nc2nccs2)cc1S(C)(=O)=O` (stereo not drawn) has a melting point of 104 to 107 °C.
Work on `N#CSc1ccc([N+](=O)[O-])cc1C(Cl)(Cl)Cl` yielded a melting point of 72 °C.
In the case of `CS(=O)(=O)c1ccc(C(=O)O)c(F)c1`, the melting point is reported as 187 to 188 °C.
Molecule `CC(Cc1c[nH]c2ccccc12)NC(=O)NCC1CCC(c2ccccc2)(N(C)C)CC1` (stereo not drawn) has a melting point of 140 to 146 °C.
`O=C(NC1(C2CC2)CC1)c1c(NC(=O)c2cc(C(F)(F)F)nn2-c2ncccc2Cl)c(Cl)cc2cn[nH]c12` showed a melting point of over 250 °C.
`COc1cccc2c1oc1ccccc12` gave a melting point of 49 to 50 °C.
